From patent publication US20240316051A1, “A PHARMACEUTICAL COMBINATION AND USE THEREOF” (Ascentage Pharma (Suzhou) Co., Ltd., priority 2021, published 2024)

What follows are compounds tested on human B cell lymphoma cell KARPAS422 (assay: Cell proliferation (WST-8), KARPAS422, 7 days). Conditions: KARPAS-422, 168 h, WST-8, Table 4A, read-out: Karpas Cell line.
Type: cell-based
Protocol: Analysis of Cell Proliferation:
To assess the effect of PRC2 inhibition on cell growth, cells were seeded in 96-well cell culture plates at a density of 2 000-3 000 cells/well in 200 μL of culture medium, and treated with serially diluted compounds for 7 days at 37° C. in an atmosphere of 5% CO2. Cell growth was evaluated by a […] WST-8 assay (Dojindo Molecular Technologies) using a Tecan Infinite M1000 multimode microplate reader (Tecan, Morrisville, NC). The WST-8 reagent was added to the plate, incubated for 1-4 h, and read at 450 nm. The readings were normalized to the DMSO-treated cells, and the IC50 was calculated by nonlinear regression analysis using GraphPad Prism 6 software

IC50	Compound
2.44 nM	O=C1c2ncn3c(NCc4c(F)ccc5c4CCO5)ncc(c23)-c2ccc(F)cc2CN1C1CC1 [Compound 64, 4-cyclopropyl-7-fluoro-12-(((5-fluoro-2,3-dihydrobenzofuran-4-yl)methyl)amino)-4,5-dihydro-3H-2,4,11,12a-tetraazabenzo[4,5]cycloocta[1,2,3-cd] inden-3-one]
34.5 nM	CC(C)(F)CN1Cc2cc(F)ccc2-c2cnc(NCc3c(F)ccc4c3CCO4)n3cnc(c23)C1=O [Compound 78, 7-fluoro-12-(((5-fluoro-2,3-dihydrobenzofuran-4-yl)methyl)amino)-4-(2-fluoro-2-methylpropyl)-4,5-dihydro-3H-2,4,11,12a-tetraazabenzo[4,5] cycloocta[1,2,3-cd]inden-3-one]
0.69 nM	O=C1c2ncn3c(NCc4c(F)ccc5c4CCO5)ncc(c23)-c2ccc(F)cc2CN1C1CCOCC1 [Compound 65, 7-fluoro-12-(((5-fluoro-2,3-dihydrobenzofuran-4-yl)methyl)amino)-4-(tetrahydro-2H-pyran-4-yl)-4,5-dihydro-3H-2,4,11,12a-tetraazabenzo[4,5] cycloocta[1,2,3-cd]inden-3-one]
11.1 nM	CN1CCC(N2Cc3cc(F)ccc3-c3cnc(NCc4c(F)ccc5c4CCO5)n4cnc(c34)C2=O)CC1 [Compound 75, 7-fluoro-12-(((5-fluoro-2,3-dihydrobenzofuran-4-yl)methyl)amino)-4-(1-methylpiperidin-4-yl)-4,5-dihydro-3H-2,4,11,12a-tetraazabenzo[4,5] cycloocta[1,2,3-cd]inden-3-one]
14.5 nM	CC(F)(F)CN1Cc2cc(F)ccc2-c2cnc(NCc3c(F)ccc4c3CCO4)n3cnc(c23)C1=O [Compound 76, 4-(2,2-difluoropropyl)-7-fluoro-12-(((5-fluoro-2,3-dihydrobenzofuran-4-yl)methyl)amino)-4,5-dihydro-3H-2,4,11,12a-tetraazabenzo[4,5]cycloocta [1,2,3-cd]inden-3-one]
2.42 nM	O=C1c2ncn3c(NCc4c(F)ccc5c4CCO5)ncc(c23)-c2ccc(F)cc2CN1CC(F)F [Compound 80, 4-(2,2-difluoroethyl)-7-fluoro-12-(((5-fluoro-2,3-dihydrobenzofuran-4-yl)methyl)amino)-4,5-dihydro-3H-2,4,11,12a-tetraazabenzo[4,5]cycloocta[1,2,3-cd]inden-3-one]

The compounds below were run against T1, EED (1-441)-His protein (Homo sapiens, UniProt O75530) (assay: EED-H3K27Me3 peptide competition binding assay by AlphaScreen). Conditions: IC50 class, Table 4B, read-out: Alpha screen.
T1 construct: 20 nM EED (1-441)-His protein
T1 sequence (O75530 whole entry): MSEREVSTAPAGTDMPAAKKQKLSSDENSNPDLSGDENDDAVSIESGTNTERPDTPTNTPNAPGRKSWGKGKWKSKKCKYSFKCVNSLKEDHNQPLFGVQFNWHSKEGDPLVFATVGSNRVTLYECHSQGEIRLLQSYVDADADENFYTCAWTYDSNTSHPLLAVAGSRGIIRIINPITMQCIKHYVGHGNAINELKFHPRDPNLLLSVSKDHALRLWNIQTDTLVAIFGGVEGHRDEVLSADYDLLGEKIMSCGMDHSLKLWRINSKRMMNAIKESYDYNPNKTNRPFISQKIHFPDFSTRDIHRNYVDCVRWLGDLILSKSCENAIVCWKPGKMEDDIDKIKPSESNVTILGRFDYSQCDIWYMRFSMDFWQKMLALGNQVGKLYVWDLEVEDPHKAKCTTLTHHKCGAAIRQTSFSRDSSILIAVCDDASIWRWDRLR
Procedure, shortened: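 Readout was AlphaScreen emission at 615 nm after 680 nm excitation, with 10 μg/ml final each of streptavidin donor and nickel chelate acceptor beads, 1 h at RT in the dark. Beforehand, compound met the His-tagged EED(1-441) for 15 min and then biotinylated H3K27Me3(19-33) peptide for 30 min; both were added as 20 nM solutions, buffer 25 mM HEPES pH 8, Tween-20, BSA. Percent activity left was fitted to give IC50.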

IC50	Compound
< 10 nM	Cc1ccc2c(n1)CN(C(C)C)C(=O)c1ncn3c(NCc4c(F)ccc5c4CCO5)ncc-2c13 [E 1, 12-(((5-fluoro-2,3-dihydrobenzofuran-4-yl)methyl)amino)-4-isopropyl-7-methyl-4,5-dihydro-3H-2,4,6,11,12a-pentaazabenzo[4,5]cycloocta[1,2,3-cd] inden-3-one]
10 to 100 nM	Cc1ccc2c(n1)Cn1ccnc1-c1ncn3c(NCc4c(F)ccc5c4CCO5)ncc-2c13 [E 34, N-((5-fluoro-2,3-dihydrobenzofuran-4-yl)methyl)-8-methyl-6H-2,3,5a,7,12,13a-hexaazabenzo[4,5] cyclopenta[7,8]cycloocta[1,2,3-cd]inden-13-amine]
< 10 nM	O=C1c2ncn3c(NCc4c(F)ccc5c4CCO5)ncc(c23)-c2ccc(C(F)(F)F)nc2CN1CC(F)F [E 8, 4-(2,2-difluoroethyl)-12-(((5-fluoro-2,3-dihydro-benzofuran-4-yl)methyl)amino)-7-(trifluoromethyl)-4,5-dihydro-3H-2,4,6, 11,12a-pentaazabenzo[4,5] cycloocta[1,2,3-cd]inden-3-one]

Same assay, conditions: Table 4A, read-out: Alpha screen

IC50	Compound
3.23 nM	CC(C)(F)CN1Cc2cc(F)ccc2-c2cnc(NCc3c(F)ccc4c3CCO4)n3cnc(c23)C1=O [Compound 78, 7-fluoro-12-(((5-fluoro-2,3-dihydrobenzofuran-4-yl)methyl)amino)-4-(2-fluoro-2-methylpropyl)-4,5-dihydro-3H-2,4,11,12a-tetraazabenzo[4,5] cycloocta[1,2,3-cd]inden-3-one]
1.72 nM	CN1CCC(N2Cc3cc(F)ccc3-c3cnc(NCc4c(F)ccc5c4CCO5)n4cnc(c34)C2=O)CC1 [Compound 75, 7-fluoro-12-(((5-fluoro-2,3-dihydrobenzofuran-4-yl)methyl)amino)-4-(1-methylpiperidin-4-yl)-4,5-dihydro-3H-2,4,11,12a-tetraazabenzo[4,5] cycloocta[1,2,3-cd]inden-3-one]
0.97 nM	CC(F)(F)CN1Cc2cc(F)ccc2-c2cnc(NCc3c(F)ccc4c3CCO4)n3cnc(c23)C1=O [Compound 76, 4-(2,2-difluoropropyl)-7-fluoro-12-(((5-fluoro-2,3-dihydrobenzofuran-4-yl)methyl)amino)-4,5-dihydro-3H-2,4,11,12a-tetraazabenzo[4,5]cycloocta [1,2,3-cd]inden-3-one]
1.61 nM	O=C1c2ncn3c(NCc4c(F)ccc5c4CCO5)ncc(c23)-c2ccc(F)cc2CN1CC(F)F [Compound 80, 4-(2,2-difluoroethyl)-7-fluoro-12-(((5-fluoro-2,3-dihydrobenzofuran-4-yl)methyl)amino)-4,5-dihydro-3H-2,4,11,12a-tetraazabenzo[4,5]cycloocta[1,2,3-cd]inden-3-one]
0.94 nM	O=C1c2ncn3c(NCc4c(F)ccc5c4CCO5)ncc(c23)-c2cnc(C(F)(F)F)cc2CN1CC1COCCO1 (stereo not shown) [Compound 37, 4-((1,4-dioxan-2-yl)methyl)-12-(((5-fluoro-2,3-dihydrobenzofuran-4-yl)methyl)amino)-7-(trifluoro-methyl)-4,5-dihydro-3H-2,4,8,11,12a-pentaazabenzo [4,5]cycloocta[1,2,3-cd]inden-3-one]
0.95 nM	Cn1cc2c(n1)COC(=O)c1ncn3c(NCc4c(F)ccc5c4CCO5)ncc-2c13 [Compound 54, 11-(((5-fluoro-2,3-dihydrobenzofuran-4-yl)methyl)amino)-7-methyl-5,7-dihydro-3H-4-oxa-2,6,7,10, 11a-pentaazacyclopenta[4,5]cycloocta[1,2,3-cd] inden-3-one]
0.67 nM	CN1Cc2cc(C(F)(F)F)ncc2-c2cnc(NCc3c(F)ccc4c3CCO4)n3cnc(c23)C1=O [Compound 34, 12-(((5-fluoro-2,3-dihydrobenzofuran-4-yl)methyl)amino)-4-methyl-7-(trifluoromethyl)-4,5-dihydro-3H-2,4,8,11,12a-pentaazabenzo[4,5]cycloocta [1,2,3-cd]inden-3-one]
0.26 nM	CS(=O)(=O)c1ccc2c(c1)NC(=O)c1ncn3c(NCc4c(F)ccc5c4CCO5)ncc-2c13 [Compound 5, 11-(((5-fluoro-2,3-dihydrobenzofuran-4-yl)methyl)amino)-6-(methylsulfonyl)-2,4,10,11a-tetraazadibenzo[cd,f]azulen-3(4H)-one]
1.65 nM	CC(C)(O)CN1Cc2cc(C(F)(F)F)ncc2-c2cnc(NCc3c(F)ccc4c3CCO4)n3cnc(c23)C1=O [Compound 48, 12-(((5-fluoro-2,3-dihydrobenzofuran-4-yl)methyl)amino)-4-(2-hydroxy-2-methylpropyl)-7-(trifluoro-methyl)-4,5-dihydro-3H-2,4,8,11,12a-pentaaza-benzo[4,5]cycloocta[1,2,3-cd]inden-3-one]
3.31 nM	O=C1NCc2nc(C(F)(F)F)ccc2-c2cnc(NCc3c(F)ccc4c3CCO4)n3cnc1c23 [Compound 25, 12-(((5-fluoro-2,3-dihydrobenzofuran-4-yl)methyl)amino)-7-(trifluoromethyl)-4,5-dihydro-3H-2,4,6, 11,12a-pentaazabenzo[4,5]cycloocta[1,2,3-cd] inden-3-one]
12.3 nM	O=C1c2ncn3c(NCc4c(F)ccc5c4CCO5)ncc(c23)-c2ccsc2CN1C1CC1 [Compound 88, 4-cyclopropyl-11-(((5-fluoro-2,3-dihydrobenzofuran-4-yl)methyl)amino)-4,5-dihydro-3H-6-thia-2,4, 10,11a-tetraazacyclopenta[4,5]cycloocta[1,2,3-cd] inden-3-one]
1.89 nM	CC(F)(F)CN1Cc2cc(C(F)(F)F)ccc2-c2cnc(NCc3c(F)ccc4c3CCO4)n3cnc(c23)C1=O [Compound 63, 4-(2,2-difluoropropyl)-12-(((5-fluoro-2,3-dihydrobenzofuran-4-yl)methyl)amino)-7-(trifluoromethyl)-4,5-dihydro-3H-2,4,11,12a-tetraazabenzo[4,5] cycloocta[1,2,3-cd]inden-3-one]
0.61 nM	O=C1OCc2cc(F)ccc2-c2cnc(NCc3c(F)ccc4c3CCO4)n3cnc1c23 [Compound 7, 7-fluoro-12-(((5-fluoro-2,3-dihydrobenzofuran-4-yl)methyl)amino)-3H,5H-4-oxa-2,11,12a-triazabenzo [4,5]cycloocta[1,2,3-cd]inden-3-one]
1.05 nM	O=C1c2ncn3c(NCc4c(F)ccc5c4CCO5)ncc(c23)-c2cnc(C(F)(F)F)cc2CN1CC1(O)CC1 [Compound 43, 12-(((5-fluoro-2,3-dihydrobenzofuran-4-yl)methyl)amino)-4-((1-hydroxycyclopropyl)methyl)-7-(trifluoromethyl)-4,5-dihydro-3H-2,4,8,11,12a-pentaazabenzo[4,5]cycloocta[1,2,3-cd]inden-3-one]
14 nM	O=S1(=O)Cc2ncccc2-c2cnc(NCc3c(F)ccc4c3CCO4)n3cnc1c23 [Compound 94, 11-(((5-fluoro-2,3-dihydrobenzofuran-4-yl)methyl)amino)-4H-3-thia-2,5,10,11a-tetraazadibenzo [cd,f]azulene 3,3-dioxide]
0.7 nM	O=C1c2ncn3c(NCc4c(F)ccc5c4CCO5)ncc(c23)-c2ccc(C(F)(F)F)nc2CN1CC1CCOC1 (stereo not shown) [Compound 52, 12-(((5-fluoro-2,3-dihydrobenzofuran-4-yl)methyl)amino)-4-((tetrahydrofuran-3-yl)methyl)-7-(trifluoro-methyl)-4,5-dihydro-3H-2,4,6,11,12a-pentaaza benzo[4,5]cycloocta[1,2,3-cd]inden-3-one]
1.97 nM	O=C1OCc2cc(C(F)(F)F)ccc2-c2cnc(NCc3c(F)ccc4c3CCO4)n3cnc1c23 [Compound 8, 12-(((5-fluoro-2,3-dihydrobenzofuran-4-yl)methyl)amino)-7-(trifluoromethyl)-3H,5H-4-oxa-2,11,12a-triazabenzo[4,5]cycloocta[1,2,3-cd]inden-3-one]
0.91 nM	CC1(O)CC(CN2Cc3nc(C(F)(F)F)ccc3-c3cnc(NCc4c(F)ccc5c4CCO5)n4cnc(c34)C2=O)C1 (stereo not shown) [Compound 47, 12-(((5-fluoro-2,3-dihydrobenzofuran-4-yl)methyl)amino)-4-((3-hydroxy-3-methylcyclobutyl)methyl)-7-(trifluoromethyl)-4,5-dihydro-3H-2,4,6,11,12a-pentaazabenzo[4,5]cycloocta[1,2,3-cd]inden-3-one]
1.18 nM	O=C1NCc2ccc(F)cc2-c2cnc(NCc3c(F)ccc4c3CCO4)n3cnc1c23 [Compound 23, 8-fluoro-12-(((5-fluoro-2,3-dihydrobenzofuran-4-yl)methyl)amino)-4,5-dihydro-3H-2,4,11,12a-tetra azabenzo[4,5]cycloocta[1,2,3-cd]inden-3-one]
